Reference: publication PMC5797143, “Epigenetic modulation of inflammation and synaptic plasticity promotes resilience against stress in mice” (Nature Communications, 2018)

Columns and labels:
[1] = system: DNA-methyltransferase 1 (DNMT1); experiment: Expression of DNA methylation/demethylation enzymes in PBMCs; format: cell-based, mouse
Method: To investigate how DHCA may attenuate IL-6 generation, we tested the effect of DHCA on Toll-like receptor-4 mediated signaling pathways. PBMCs were pretreated with DHCA and stimulated with LPS using the same protocol as during screening. Samples were taken at 0, 30 min, 60 min, 6 h and 16 h following LPS stimulation and cell lysates were subjected to a multiplex ELISA assay. […] Based on evidence that DNA methylation at a single CpG in the human IL-6 promoter region effectively alters IL-6 expression, we next tested whether DHCA can modulate IL-6 gene expression through methylation mechanisms. We treated PBMC cells with DHCA and measured the expression of enzymes essential for DNA methylation/demethylation. […] To investigate how methylation influences IL-6 gene expression, we employed the CpG-free luciferase reporter system. […] To test whether DHCA may influence the expression of other pro-inflammatory factors, we measured the level of secreted cytokines following LPS stimulation (Supplementary Fig. 3).
(§1) Total RNA from MSN-enriched cultures or brain NAc was isolated using the RNeasy Mini Kit (Qiagen, Valencia, CA, USA) and reverse transcribed. Gene expression was measured in four replicates by quantitative RT-PCR using Maxima SYBR Green master mix (Fermentas) in ABI Prism 7900HT. […]

Rac1 [2] = experiment: Rac1 expression in E18 MSN-enriched primary culture (screening, dose response); format: cell-based, mouse
Excerpt: BDPP contains a variety of polyphenols. Orally consumed polyphenols are typically bioavailable in various organs and tissues as metabolites (phase II polyphenol conjugates and phenolic acids) following xenobiotic metabolism and gastrointestinal microbiome fermentation. It is possible that some metabolites may counteract the positive effect of the others. Therefore, if supplied as BDPP, the overall benefits might be reduced due to potential ‘cancellation’ effects. By identifying individual metabolites that selectively target key pathological mechanisms (e.g., Rac1 and IL-6) we can greatly improve the efficacy. We and others recently identified 21 BDPP-derived phenolic metabolites that accumulate in blood and/or in the CNS (14 polyphenolic metabolites and 7 phenolic acids, Supplementary Table 1)[25], [28], [33], among which 14 are currently accessible, [34]. We initiated a high-throughput screen of these metabolites for their ability to modulate IL-6 and Rac1. […]
as §1

[3] = system: HDAC2 and other class I or class II HDACs; experiment: HDAC gene expression in MSN-enriched primary culture; format: cell-based, mouse; details: MSN-enriched primary cultures
Excerpt: Stress-induced reduction of Rac1 expression is associated with a repressed chromatin state surrounding the promoter region of Rac1 in the NAc[11]. Since Mal-gluc can cross the BBB, we hypothesized that Mal-gluc may promote Rac1 expression, in part, by modulating chromatin acetylation. We first assessed the effect of Mal-gluc on HDACs that play key roles in chromatin deacetylation. […] Using site directed quantitative chromatin immunoprecipitation (qCHIP), we examined the permissive histone H3 acetylation (AcH3) in Mal-gluc treated MSN-enriched primary cultures.
Striatal tissue from E18 was mechanically triturated and centrifuged. Neurons were seeded onto a poly-D-lysine-coated 12-well plate at 5 × 10^5 cells/well and cultured in Neurobasal medium, supplemented with 2% B27, 0.5 mM L-glutamine, and 1% penicillin-streptomycin (Gibco-BRL, Invitrogen). Following 4 days in vitro (DIV), 5 µM of Ara-c was used to inhibit the growth of glial cells. Following 10-day DIV culturing, neurons were treated with select brain-bioavailable polyphenol metabolites for 16 h, washed once with cold PBS and RNA was then isolated. […]
as §1

Rac1 [4] = experiment: In vivo dose finding: Rac1 mRNA in the NAc; set-up: species or system mouse; details: 50 ng to 5 mg/kg-BW/day in drinking water, 2 weeks; strongest at 500 ng and 5 µg/kg-BW/day
Method: We then initiated dose response and safety studies in mice to determine testing dosages and safety of DHCA and Mal-gluc. C57BL/6 mice were treated with either DHCA (doses ranging from 50 µg to 50 mg/kg-BW/day) or Mal-gluc (doses ranging from 50 ng to 5 mg/kg-BW/day) for 2 weeks to simulate long-term administration. Mice treated with DHCA were challenged with intraperitoneal (i.p.) injection of 0.4 mg/kg-BW LPS and plasma levels of IL-6 were measured 6 h post injection. […] Following common discovery-stage practices, we measured the plasma levels of alkaline phosphatase (ALP), aspartate aminotransferase (AST), and alanine aminotransferase (ALT) for liver function and blood urea nitrogen (BUN) for renal function.
Male C57BL/6 J mice (8-week-old) were placed on a polyphenol-free AIN-93M diet and treated with various doses of DHCA (vehicle, 50 µg, 500 µg, 5 mg, and 50 mg/kg-BW/day), delivered through their drinking water for two weeks. […]
as §1

Row | SMILES | expression of DNMT1 [1] | primary screening, Rac1 expression (Rac1 [2]; 9 brain bioavailable metabolites screened) | EC50 (Rac1 [2]; E18 MSN-enriched primary culture, 16 h, read-out: calculated EC50, increase of Rac1 expression) [nM] | expression of HDAC2 [3] | expression of other class I or class II HDACs [3] | Rac1 mRNA in the NAc (Rac1 [4])
1 | O=C(O)CCc1ccc(O)c(O)c1 [DHCA, 3(3,4-dihydroxy-phenyl) propionic acid] | significantly reduced |  |  |  |  | 
2 | COc1cc(-c2[o+]c3cc(O)cc(O)c3cc2O[C@@H]2O[C@H](CO)[C@@H](O)[C@H](O)[C@H]2O)cc(OC)c1O [Mal-gluc] |  | significantly increased Rac1 expression | 3.52 | significantly reduced the expression of HDAC2 | no observable effect | dose-response increase of Rac1 expression
